Holding throughout (experiment): relative viability (nuclei count vs DMSO), 5 days (fraction); higher = more cells survive
Compound in the test “TPCA-1 + Dasatinib”: C1=CC(=CC=C1C2=CC(=C(S2)NC(=O)N)C(=O)N)F [TPCA-1] + Cc1nc(Nc2ncc(C(=O)Nc3c(C)cccc3Cl)s2)cc(N2CCN(CCO)CC2)n1 [Dasatinib] (partner 0.075 µM)
The method in brief: (§1)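 Five library-drug doses in √10 steps were combined with a fixed anchor-drug dose, or a single drug was given alone, by pin tool to lung cancer cell lines in 1536-well plates the day after seeding. Nuclei were stained and counted after 5 days. Relative viability is the nuclei count in treated wells over that in vehicle wells, taken as the median of duplicate plates.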

Compound in the test “TPCA-1 + Phenformin”: C1=CC(=CC=C1C2=CC(=C(S2)NC(=O)N)C(=O)N)F [TPCA-1] + N=C(N)NC(=N)NCCc1ccccc1 [Phenformin] (partner 250 µM)
The essentials: as §1

Compound in the test “TPCA-1 + AZD7762”: C1=CC(=CC=C1C2=CC(=C(S2)NC(=O)N)C(=O)N)F [TPCA-1] + NC(=O)Nc1cc(-c2cccc(F)c2)sc1C(=O)N[C@H]1CCCNC1 [AZD7762] (partner 0.2 µM)
The method in brief:
as §1

Compound in test [1]: C[C@]12O[C@H](C[C@]1(O)CO)n1c3ccccc3c3c4c(c5c6ccccc6n2c5c31)CNC4=O [Lestaurtinib] + Nc1ncn([C@H]2C[C@H](O)[C@@H](CO)O2)c(=O)n1 [Decitabine] (partner 2 µM)
The method in brief: as §1

Take NCI-H1355: the relative viability was 0.836 with TPCA-1 + Dasatinib (first compound 0.04 µM); 0.652 with TPCA-1 + Dasatinib (first compound 0.1265 µM); 0.716 with TPCA-1 + Dasatinib (first compound 0.4 µM); 0.599 in the test with TPCA-1 + Dasatinib (first compound 1.265 µM); 0.519 with TPCA-1 + Dasatinib (first compound 4 µM); 0.515 with TPCA-1 + Phenformin (first compound 0.04 µM). Besides, the relative viability with TPCA-1 + Phenformin (first compound 0.1265 µM) was found to be 0.415; in the test with TPCA-1 + Phenformin (first compound 0.4 µM) it was 0.47; with TPCA-1 + Phenformin (first compound 1.265 µM), 0.393; in the test with TPCA-1 + Phenformin (first compound 4 µM), 0.305; with TPCA-1 + AZD7762 (first compound 0.04 µM), 0.831; with TPCA-1 + AZD7762 (first compound 0.1265 µM), 0.7. The relative viability was 0.756 in the test with TPCA-1 + AZD7762 (first compound 0.4 µM); 0.675 with TPCA-1 + AZD7762 (first compound 1.265 µM); 0.707 with TPCA-1 + AZD7762 (first compound 4 µM); 0.389 in test [1] (first compound 0.005 µM); 0.349 in test [1] (first compound 0.01581 µM); 0.329 in test [1] (first compound 0.05 µM). Moreover, the values for the relative viability in test [1] (first compound 0.1581 µM) and in test [1] (first compound 0.5 µM) were 0.311 and 0.344, respectively.

For NCI-H1395, the relative viability in the test with TPCA-1 + Dasatinib (first compound 0.04 µM) was 0.478; in the test with TPCA-1 + Dasatinib (first compound 0.1265 µM), 0.39; in the test with TPCA-1 + Dasatinib (first compound 0.4 µM) it was 0.4; with TPCA-1 + Dasatinib (first compound 1.265 µM), 0.421; with TPCA-1 + Dasatinib (first compound 4 µM), 0.344; in the test with TPCA-1 + Phenformin (first compound 0.04 µM), 0.445. Moreover, the relative viability with TPCA-1 + Phenformin (first compound 0.1265 µM) is 0.488; with TPCA-1 + Phenformin (first compound 0.4 µM), 0.449; in the test with TPCA-1 + Phenformin (first compound 1.265 µM), 0.436; with TPCA-1 + Phenformin (first compound 4 µM), 0.499; in the test with TPCA-1 + AZD7762 (first compound 0.04 µM) it was 0.398; with TPCA-1 + AZD7762 (first compound 0.1265 µM), 0.378. Moreover, the relative viability with TPCA-1 + AZD7762 (first compound 0.4 µM) stood at 0.381; in the test with TPCA-1 + AZD7762 (first compound 1.265 µM), 0.37; with TPCA-1 + AZD7762 (first compound 4 µM), 0.444; in test [1] (first compound 0.005 µM) it was 0.778; in test [1] (first compound 0.01581 µM), 0.765; in test [1] (first compound 0.05 µM), 0.774. The figures for the relative viability in test [1] (first compound 0.1581 µM) and in test [1] (first compound 0.5 µM) were 0.684 and 0.453, respectively.

Regarding NCI-H1437, the relative viability with TPCA-1 + Dasatinib (first compound 0.04 µM) came out at 0.462; in the test with TPCA-1 + Dasatinib (first compound 0.1265 µM), 0.368; with TPCA-1 + Dasatinib (first compound 0.4 µM), 0.565; with TPCA-1 + Dasatinib (first compound 1.265 µM), 0.408; with TPCA-1 + Dasatinib (first compound 4 µM), 0.325; with TPCA-1 + Phenformin (first compound 0.04 µM) it was 0.336. Besides, the relative viability is 0.297 with TPCA-1 + Phenformin (first compound 0.1265 µM); 0.277 in the test with TPCA-1 + Phenformin (first compound 0.4 µM); 0.297 with TPCA-1 + Phenformin (first compound 1.265 µM); 0.299 with TPCA-1 + Phenformin (first compound 4 µM); 1.19 with TPCA-1 + AZD7762 (first compound 0.04 µM); 1.14 with TPCA-1 + AZD7762 (first compound 0.4 µM). Moreover, the relative viability in the test with TPCA-1 + AZD7762 (first compound 1.265 µM) stood at 1.03; with TPCA-1 + AZD7762 (first compound 4 µM), 0.906; in test [1] (first compound 0.005 µM), 0.546; in test [1] (first compound 0.01581 µM), 0.649; in test [1] (first compound 0.05 µM), 0.645; in test [1] (first compound 0.1581 µM) it was 0.626. The relative viability in test [1] (first compound 0.5 µM) was 0.636.

For the cell line NCI-H1651, the relative viability with TPCA-1 + Dasatinib (first compound 0.04 µM) was determined as 0.444; in the test with TPCA-1 + Dasatinib (first compound 0.1265 µM), 0.382; in the test with TPCA-1 + Dasatinib (first compound 0.4 µM), 0.402; with TPCA-1 + Dasatinib (first compound 1.265 µM) it was 0.395; with TPCA-1 + Dasatinib (first compound 4 µM) it was 0.383; with TPCA-1 + Phenformin (first compound 0.04 µM), 0.361. Also, the relative viability was 0.295 with TPCA-1 + Phenformin (first compound 0.1265 µM); 0.368 with TPCA-1 + Phenformin (first compound 0.4 µM); 0.327 with TPCA-1 + Phenformin (first compound 1.265 µM); 0.262 with TPCA-1 + Phenformin (first compound 4 µM); 0.486 with TPCA-1 + AZD7762 (first compound 0.04 µM); 0.439 with TPCA-1 + AZD7762 (first compound 0.1265 µM). The relative viability with TPCA-1 + AZD7762 (first compound 0.4 µM) is 0.462; with TPCA-1 + AZD7762 (first compound 1.265 µM) it was 0.431; with TPCA-1 + AZD7762 (first compound 4 µM) it was 0.401; in test [1] (first compound 0.005 µM), 0.63; in test [1] (first compound 0.01581 µM), 0.775; in test [1] (first compound 0.05 µM), 0.59. The relative viability in test [1] (first compound 0.1581 µM) came out at 0.653; in test [1] (first compound 0.5 µM), 0.406.

(Values after the supplement of paper PMC10307832.)
